Measured values taken from patent US20230099031A1, “BIFUNCTIONAL AGENTS FOR PROTEIN RECRUITMENT AND/OR DEGRADATION” (Orionis Biosciences, Inc., priority 2019, published 2023).
Where two headings read alike, the source gives them in different places.

Columns and labels:
Type in all cases: cell-based
ESR1 = biological target: T1, ESR1 (Homo sapiens, UniProt P03372+Q96SW2); assay: Recruitment Assay (MAPPIT-like): ESR1 recruitment, pSEL-CRBN+pMG1-ESR1; details: HEK293T cells, luciferase 24 hours after compound treatment; read-out: Recruitment EC50 (M), target protein ESR1
T1 construct: Full size proteins are fused for each of the target proteins tested; expressed in transfected cells; host or cells: HEK293T
Method: In this Example 2, a similar MAPPIT-like assay is applied as described in Example 1 to determine test compound-induced binding of a particular substrate protein of interest to CRBN. In this experimental set-up, cells are transfected with a construct encoding a CRBN-fusion protein and another one encoding a substrate-fusion protein. Test compound activity is assessed with increasing concentrations of test compounds (dose-response studies) to monitor the ability to promote CRBN-ligand-induced protein interaction.
Specifically, HEK293T cells are transfected with a plasmid encoding the MAPPIT receptor fusion wherein the protein of interest (CRBN or substrate protein) is genetically linked to a cytoplasmic domain of the leptin receptor, which itself is fused to the extracellular domain of the erythropoietin (Epo) receptor (pSEL-X, where X represents either CRBN or any of the tested substrate proteins of interest) or to the extracellular domain of the leptin receptor (pCLG-X, where X represents either CRBN or any of the tested substrate proteins of interest), a plasmid encoding the MAPPIT gp130 fusion (pMG1-Y, Y being either any of the tested substrate proteins or CRBN) and a STAT3-responsive luciferase-encoding reporter plasmid (pXP2d2-rPAPI-luciferase reporter plasmid), as described (Lievens, et al. “Array MAPPIT: high-throughput interactome analysis in mammalian cells.” Journal of Proteome Research 8.2 (2009): 877-886). Full size proteins are fused for each of the target proteins tested, except in the case of IKZF1 where isoform 7 is used, and BRD4, where isoform 3 is applied. […] Luciferase activity is measured 24 hours after test compound treatment using the Luciferase Assay System kit (PROMEGA, Madison, Wis.) with an Ensight plate reader (PERKIN ELMER LIFE SCIENCES, Waltham, Mass.). […]

CRBN = biological target: T2, CRBN (Homo sapiens, UniProt Q96SW2); assay: Competition Assay: MAPPIT-like, competition with trimethoprim-lenalidomide hybrid ligand for binding to CRBN in HEK293T cells
T2 construct: expressed in transfected cells; host or cells: HEK293T

IKZF1, ASS1 and SALL4 = assay: Recruitment assessment: recruitment of any tested substrate from among IKZF1, ASS1 and SALL4 (MAPPIT-like recruitment assays); details: any tested substrate among IKZF1, ASS1, SALL4 at any tested concentration
ASS1 = biological target: T3, ASS1 (Homo sapiens, UniProt P00966+Q96SW2); assay: Recruitment Assay (MAPPIT-like): ASS1 recruitment, pSEL-CRBN+pMG1-ASS1; details: recruitment of ASS1, protocol of Example 2; read-out: EC50_ASS1
T3 construct: Full size proteins are fused for each of the target proteins tested; expressed in transfected cells; host or cells: HEK293T
Method: (§1) In this experimental set-up, cells are transfected with a construct encoding a CRBN-fusion protein and another one encoding a substrate-fusion protein. Test compound activity is assessed with increasing concentrations of test compounds (dose-response studies) to monitor the ability to promote CRBN-ligand-induced protein interaction.
(§2) Full size proteins are fused for each of the target proteins tested, except in the case of IKZF1 where isoform 7 is used, and BRD4, where isoform 3 is applied. For the study, the following construct combinations are used: IKZF1 recruitment: pSEL-CRBN+pMG1-IKZF1(isoform 7); ASS1 recruitment: pSEL-CRBN+pMG1-ASS1; SALL4 recruitment: pSEL-SALL4+pMG1-CRBN; DHFR recruitment: pCLG-DHFR+pMG1-CRBN; ESR1 recruitment: pSEL-CRBN+pMG1-ESR1; BRD4 recruitment: pSEL-CRBN+pMG1-BRD4(isoform 3). Cells are treated with erythropoietin (Epo; where pSEL-type receptor fusions constructs are used) or leptin (in the case pCLG-type receptor fusion constructs are applied) without or with the indicated dose of test compound at 24 hours after transfection. Luciferase activity is measured 24 hours after test compound treatment using the Luciferase Assay System kit (PROMEGA, Madison, Wis.) with an Ensight plate reader (PERKIN ELMER LIFE SCIENCES, Waltham, Mass.). Data points depict fold induction of the average luciferase activity of triplicate samples from Epo or leptin+test compound treated cells versus Epo or leptin only treated cells. Error bars represent standard deviations. Curves are fit using 4-parameter nonlinear regression in […] PRISM software.

IKZF1 = biological target: T4, IKZF1 (Homo sapiens, UniProt Q13422+Q96SW2); assay: Recruitment Assay (MAPPIT-like): IKZF1 recruitment, pSEL-CRBN+pMG1-IKZF1(isoform 7); details: recruitment of IKZF1, protocol of Example 2; read-out: EC50_IKZF1
T4 construct: expressed in transfected cells; host or cells: HEK293T
Method: as §1, §2

[1] = HEK293T cells, 300 nM trimethoprim-lenalidomide hybrid ligand, luciferase 24 hours after compound treatment, read-out: Competition IC50
[2] = protocol and reagents of Example 1, read-out: IC50 Competition

With `CC/C(=C(\c1ccccc1)c1ccc(OCCN(C)CC(=O)NCCOCCOCCOCCOCCNC(=O)COc2cccc3c2CN(C2CCC(=O)NC2=O)C3=O)cc1)c1ccccc1` (stereo not drawn) [Compound 5.53] the EC50 (ESR1) was 7.35e-07 M and the IC50 (CRBN; [1]) was 1390 nM.

`CC/C(=C(\c1ccccc1)c1ccc(OCCN(C)CC(=O)NCCOCCOCCOCCNC(=O)COc2cccc3c2CN(C2CCC(=O)NC2=O)C3=O)cc1)c1ccccc1` (stereo not drawn) [Compound 5.55] gave an EC50 (ESR1) of 4.42e-07 M and an IC50 (CRBN; [1]) of 1050 nM.

For `O=C1CCC(N2Cc3ccc(NC(=O)c4cnc5[nH]cnc5c4)cc3C2=O)C(=O)N1` (stereo not drawn) [Compound C80394, N-[2-(2,6-dioxo-3-piperidyl)-3-oxo-isoindolin-5-yl]-3H-imidazo[4,5-b]pyridine-6-carboxamide], the IC50 (CRBN; [2]) was 7990 nM and the “Recruitment Assessment” value (IKZF1, ASS1 and SALL4) was “TRUE”.

In the case of `Cc1ccc(NC(=O)NCc2ccc3c(c2)CN(C2CCC(=O)NC2=O)C3=O)cc1Cl` (stereo not drawn) [CC-885, 1-(3-chloro-4-methyl-phenyl)-3-[[2-(2,6-dioxo-3-piperidyl)-1-oxo-isoindolin-5-yl]methyl]urea, reference compound], the EC50 (ASS1) is reported as 80.1 nM, the IC50 (CRBN; [2]) is reported as 0.465 nM and the EC50 (IKZF1) is reported as less than 13.7 nM. For the same compound, the “Recruitment Assessment” value (IKZF1, ASS1 and SALL4) was “TRUE”.

`CC/C(=C(\c1ccccc1)c1ccc(OCCN(C)CC(=O)NCCOCCOCCNC(=O)COc2cccc3c2CN(C2CCC(=O)NC2=O)C3=O)cc1)c1ccccc1` (stereo not drawn) [Compound 5.54] was tested, and the EC50 (ESR1) was 1.35e-07 M and the IC50 (CRBN; [1]) was 838 nM.
